Test results published in US4623662A, “Antiatherosclerotic ureas and thioureas” (American Cyanamid Company, priority 1985, dated 1986).
Read-outs that look alike come from different tables or passages of the source.

Legend:
[1] = target: T1, fatty acyl CoA: cholesterol acyl transferase (ACAT) (Rattus norvegicus, UniProt O70536); test: Inhibition of fatty acyl CoA:cholesterol acyl transferase (ACAT), rat adrenal enzyme; format: biochemical
T1 construct: The supernatant, containing the microsomal fraction, served as the source of the cholesterol-esterifying enzyme; from tissue; host or cells: rat adrenals, supernatant of 1,000 x g centrifugation containing the microsomal fraction
T1 sequence (O70536 1-545): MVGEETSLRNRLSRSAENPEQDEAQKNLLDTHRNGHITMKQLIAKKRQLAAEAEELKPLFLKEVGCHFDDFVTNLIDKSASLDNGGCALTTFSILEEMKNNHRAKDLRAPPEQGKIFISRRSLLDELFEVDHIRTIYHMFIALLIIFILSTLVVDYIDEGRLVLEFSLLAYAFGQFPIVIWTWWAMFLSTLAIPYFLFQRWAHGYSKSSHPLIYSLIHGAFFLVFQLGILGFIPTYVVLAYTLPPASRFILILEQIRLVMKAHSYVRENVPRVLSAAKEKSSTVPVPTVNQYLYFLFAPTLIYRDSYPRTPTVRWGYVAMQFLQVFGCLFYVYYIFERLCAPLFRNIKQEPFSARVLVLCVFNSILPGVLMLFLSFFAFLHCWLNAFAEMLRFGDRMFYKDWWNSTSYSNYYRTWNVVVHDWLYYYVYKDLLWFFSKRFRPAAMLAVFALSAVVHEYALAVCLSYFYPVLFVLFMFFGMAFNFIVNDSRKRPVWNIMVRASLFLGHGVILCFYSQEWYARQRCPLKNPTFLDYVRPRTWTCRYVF
Summary of the method: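 Enzyme source was the microsomal supernatant of rat adrenal homogenate (0.2M potassium phosphate, pH 7.4) with BSA, preincubated with compound (5.2 μg/ml final for single-point) for 10 min at 37° C. Then [14C]oleoyl CoA added, 10 min at 37° C. TLC-separated cholesteryl ester was counted; percent inhibition versus control, IC50 from several concentrations.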

cholesterol absorption = test: Inhibition of cholesterol absorption in rats fed 1% cholesterol:0.5% cholic acid diet; format: in vivo, male Sprague-Dawley rats; settings: po, 336 h, rat, dose .03% of the diet, 2 weeks
Summary of the method: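 Male Sprague-Dawley rats (150-170 g) fed 1% cholesterol:0.5% cholic acid diet for 2 weeks with compound at 0.001, 0.003, 0.01 or 0.03% of diet. Serum cholesterol measured enzymatically; liver cholesterol from saponified large-lobe sample after petroleum ether extraction. Liver and serum sterol expressed as percent of untreated controls.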

[2] = read-out: LS (liver sterol), percentage of control values
[3] = read-out: SS (serum sterol), percentage of control values
[4] = rat adrenal ACAT, final concentration 5.2 μg/ml, read-out: % Inhibition

Compound | inhibition at 5.2 µg/mL [1] [%] | response vs control in vivo at 0.03 % (cholesterol absorption; [2]) [%] | response vs control in vivo at 0.03 % (cholesterol absorption; [3]) [%] | inhibition at 5.2 µg/mL [1, 4] [%]
CC(C)(C)CCN(Cc1ccc(CC(C)(C)C)cc1)C(=O)Nc1ccc(F)cc1F [1-(3,3-Dimethylbutyl)-1-[4-(2,2-dimethylpropyl)benzyl]-3-(2,4-difluorophenyl)urea] | 90 | 19 | 35 | –
Cc1cc(Cl)cc(C)c1NC(=O)N(CCC(C)(C)C)Cc1ccc(CC(C)(C)C)cc1 [1-(3,3-Dimethylbutyl)-1-[4-(2,2-dimethylpropyl)benzyl]-3-(4-chloro-2,6-dimethylphenyl)urea] | 90 | 11 | 31 | –
Cc1cc(Cl)ccc1NC(=O)N(CCC(C)(C)C)Cc1ccc(CC(C)(C)C)cc1 [1-(3,3-Dimethylbutyl)-1-[4-(2,2-dimethylpropyl)benzyl]-3-(4-chloro-2-methylphenyl)urea] | 90 | 20 | 51 | –
CCCCOc1ccc(CN(CCC(C)(C)C)C(=O)Nc2c(Cl)cc(Cl)cc2Cl)cc1 [1-(3,3-Dimethylbutyl)-1-[4-(n-butoxy)benzyl]-3-(2,4,6-trichlorophenyl)urea] | 90 | 20 | 52 | –
CCCCOc1ccc(CN(CCC(C)(C)C)C(=O)Nc2ccc(F)cc2F)cc1 [1-(3,3-Dimethylbutyl)-1-[4-(n-butoxy)benzyl]-3-(2,4-difluorophenyl)urea] | 90 | 32 | 42 | –
CCCCOc1ccc(CN(CCC(C)(C)C)C(=O)Nc2ccc(Cl)cc2C)cc1 [1-(3,3-Dimethylbutyl)-1-[4-(n-butoxy)benzyl]-3-(4-chloro-2-methylphenyl)urea] | 90 | 22 | 61 | –
CCCCc1ccc(CN(CCC(C)(C)C)C(=O)Nc2c(Cl)cc(Cl)cc2Cl)cc1 [1-(3,3-Dimethylbutyl)-1-[4-(n-butyl)benzyl]-3-(2,4,6-trichlorophenyl)urea] | 90 | 13 | 37 | –
CCCCc1ccc(CN(CCC(C)(C)C)C(=O)Nc2ccc(F)cc2F)cc1 [1-(3,3-Dimethylbutyl)-1-[4-(n-butyl)benzyl]-3-(2,4-difluorophenyl)urea] | 90 | 30 | 39 | –
CCCCc1ccc(CN(CCC(C)(C)C)C(=O)Nc2c(C)cc(Cl)cc2C)cc1 [1-(3,3-Dimethylbutyl)-1-[4-(n-butyl)benzyl]-3-(4-chloro-2,6-dimethylphenyl)urea] | 90 | 12 | 28 | –
CCCCc1ccc(CN(CCC(C)(C)C)C(=O)Nc2ccc(Cl)cc2C)cc1 [1-(3,3-Dimethylbutyl)-1-[4-(n-butyl)benzyl]-3-(4-chloro-2-methylphenyl)urea] | – | 13 | 46 | 90.5
CC(C)(C)CCN(Cc1ccccc1)C(=O)Nc1ccc(F)cc1F [1-(3,3-Dimethylbutyl)-1-benzyl-3-(2,4-difluorophenyl)urea] | 90 | 70 | 71 | –
Cc1cc(Cl)ccc1NC(=O)N(CCC(C)(C)C)Cc1ccccc1 [1-(3,3-Dimethylbutyl)-1-benzyl-3-(4-chloro-2-methylphenyl)urea] | 90 | 51 | 64 | –
Cc1ccc(NC(=O)N(Cc2ccc(C)c(C)c2)Cc2ccccc2Cl)c(C)c1 [1-(3,4-Dimethylbenzyl)-1-(2-chlorobenzyl)-3-(2,4-dimethylphenyl)urea] | – | 15 | 44 | 92.9
